Drawing on BindingDB's records for doi:10.1016/j.bmcl.2010.12.016 (Amira Pharmaceuticals, 2011), this text covers IC50 for five compounds.

Assay [1] in a line: Antagonist activity against CRTh2 receptor in human eosinophils assessed as cell shape change by flow cytometry. Background: Flow cytometry measures light scatter and fluorescence of single cells or particles in a stream.
The nature of assay [2]: Antagonist activity against CRTh2 receptor in human eosinophils assessed as cell shape change after 4 hrs by flow cytometry.

In the case of `CCN(Cc1cc(-c2ncc(OC)cn2)ccc1-c1cc(CC(=O)O)ccc1OC)C(=O)C1CC1` [2-(2'-((N-ethylcyclopropanecarboxamido)methyl)-6-methoxy-4'-(5-methoxypyrimidin-2-yl)biphenyl-3-yl)acetic acid], the IC50 (commonly the point on the concentration scale where inhibition reaches its midpoint) in assay [1] came to 18 nM.

In the case of `CCN(Cc1cc(-c2cnc3ccccc3c2)ccc1-c1cc(CC(=O)O)ccc1OC)C(=O)C1CC1` [2-(2'-((N-ethylcyclopropanecarboxamido)methyl)-6-methoxy-4'-(quinolin-3-yl)biphenyl-3-yl)acetic acid], the IC50 in assay [1] turned out to be 12 nM.

`CCN(Cc1cc(-c2ccc(F)cn2)ccc1-c1cc(CC(=O)O)ccc1OC)C(=O)C1CC1` [2-(2'-((N-ethylcyclopropanecarboxamido)methyl)-4'-(5-fluoropyridin-2-yl)-6-methoxybiphenyl-3-yl)acetic acid]: the IC50 in assay [1] was 23 nM.

For the compound `CCN(Cc1cc(-c2cnn(C)c2)ccc1-c1cc(CC(=O)O)ccc1OC)C(=O)C1CC1` [2-(2'-((N-ethylcyclopropanecarboxamido)methyl)-6-methoxy-4'-(1-methyl-1H-pyrazol-4-yl)biphenyl-3-yl)acetic acid], in assay [1], the IC50 was determined as 4 nM.

As to `CCOc1ccc(-c2ccc(-c3cc(CC(=O)O)ccc3OC)c(CN(CC)C(=O)C3CC3)c2)cn1` [Sodium [2'-[(cyclopropanecarbonyl-ethyl-amino)-methyl]-4'-(6-ethoxy-pyridin-3-yl)-6-methoxy-biphenyl-3-yl]-acetate], the IC50 in assay [2] is 1.7 nM; in assay [1] it was 5 nM.
